Test results: US12145944B2, “Imidazopyrimidines as EED inhibitors and the use thereof” (THE REGENTS OF THE UNIVERSITY OF MICHIGAN, priority 2019, dated 2024)
Where two headings read alike, the source gives them in different places.

Experiments:
[1] = tested on: KARPAS422 human B cell lymphoma cell; test: Cell proliferation, KARPAS422, 7 day treatment (WST-8); format: cell-based; conditions: Homo sapiens, KARPAS-422, 168 h, 7 day treatment, read-out: Karpas Cell line
In short: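 KARPAS422 cells seeded at 2 000-3 000 cells/well and exposed to serially diluted compounds for 7 days at 37 °C, 5% CO2. Growth measured by WST-8 (1-4 h, absorbance 450 nm). Readings normalized to DMSO-treated cells; IC50 from nonlinear regression.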

[2] = tested on: Pfeiffer cell line; test: Anti-proliferative activity, Pfeiffer cell line, 7 day treatment; format: cell-based; conditions: Homo sapiens, 168 h, 7 day treatment, read-out: Pfeiffer Cell line
In short: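 Cells seeded at 2 000-3 000 per well were treated with serially diluted compounds for 7 days at 37° C, 5% CO2. Growth was measured by WST-8 assay read at 450 nm after 1-4 h reagent incubation. Readings were normalized to DMSO-treated cells and IC50 values derived by nonlinear regression.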

[3] = anti-proliferative IC50, Karpas 422 cell line
[4] = anti-proliferative IC50, Pfeiffer cell line
[5] = anti-proliferative IC50 class, Karpas 422 cell line
[6] = anti-proliferative IC50 class, Pfeiffer cell line

| Structure (SMILES) | IC50 [1, 3] [nM] | IC50 [2, 4] [nM] | IC50 [1, 5] [nM] | IC50 [2, 6] [nM] |
| --- | --- | --- | --- | --- |
| O=C1NCc2c(F)cccc2-c2cnc(NCc3c(F)ccc4c3CCO4)n3cnc1c23 [compound 20, 6-fluoro-12-(((5-fluoro-2,3-dihydrobenzofuran-4-yl)methyl)amino)-4,5-dihydro-3H-2,4,11,12a-tetraazabenzo[4,5]cycloocta[1,2,3-cd]inden-3-one] | 13.9 | 0.9 | – | – |
| Fc1ccc2c(c1CNc1ncc3c4c(ncn14)COCc1ncccc1-3)CCO2 [Cpd. No. 2, N-((5-fluoro-2,3-dihydrobenzofuran-4-yl)methyl)-3H,5H-4-oxa-2,6,11,12a-tetraazabenzo[4,5]cycloocta[1,2,3-cd]inden-12-amine] | > 100 | > 100 | – | – |
| O=C1OCc2ccc(C(F)(F)F)cc2-c2cnc(NCc3c(F)ccc4c3CCO4)n3cnc1c23 [compound 24, 12-(((5-fluoro-2,3-dihydrobenzofuran-4-yl)methyl)amino)-8-(trifluoromethyl)-3H,5H-4-oxa-2,11,12a-triazabenzo[4,5]cycloocta[1,2,3-cd]inden-3-one] | > 100 | 38.4 | – | – |
| O=C1OCc2cnc(C(F)(F)F)cc2-c2cnc(NCc3c(F)ccc4c3CCO4)n3cnc1c23 [compound 32, 12-(((5-fluoro-2,3-dihydrobenzofuran-4-yl)methyl)amino)-8-(trifluoromethyl)-3H,5H-4-oxa-2,7,11,12a-tetraazabenzo[4,5]cycloocta[1,2,3-cd]inden-3-one] | 84.4 | 11.6 | – | – |
| O=C1NCCc2ccccc2-c2cnc(NCc3c(F)ccc4c3CCO4)n3cnc1c23 [E 28, 13-(((5-fluoro-2,3-dihydrobenzofuran-4-yl)methyl)amino)-5,6-dihydro-2,4,12,13a-tetraazabenzo[4,5]cyclonona[1,2,3-cd]inden-3(4H)-one] | – | – | > 100 | 10 to 100 |
| CN1CCC(CN2Cc3cc(C(F)(F)F)ncc3-c3cnc(NCc4c(F)ccc5c4CCO5)n4cnc(c34)C2=O)CC1 [compound 38, 12-(((5-fluoro-2,3-dihydrobenzofuran-4-yl)methyl)amino)-4-((1-methylpiperidin-4-yl)methyl)-7-(trifluoromethyl)-4,5-dihydro-3H-2,4,8,11,12a-pentaazabenzo[4,5]cycloocta[1,2,3-cd]inden-3-one] | 15.7 | 3.22 | – | – |
| CS(=O)(=O)c1ccc2c(c1)NC(=O)c1ncn3c(NCc4c(F)ccc5c4CCO5)ncc-2c13 [compound 5, 11-(((5-fluoro-2,3-dihydrobenzofuran-4-yl)methyl)amino)-6-(methylsulfonyl)-2,4,10,11a-tetraazadibenzo[cd,f]azulen-3(4H)-one] | 32.2 | 18.1 | – | – |
| Cc1onc2c1Cc1cc(C(F)(F)F)ncc1-c1cnc(NCc3c(F)ccc4c3CCO4)n3cnc-2c13 [E 35, N-((5-fluoro-2,3-dihydrobenzofuran-4-yl)methyl)-5-methyl-8-(trifluoromethyl)-6H-4-oxa-2,3,9,12,13a-pentaazabenzo[4,5]cyclopenta[7,8]cycloocta [1,2,3-cd]inden-13-amine] | – | – | 10 to 100 | 10 to 100 |
| CN1Cc2ccc(C(F)(F)F)nc2-c2cnc(NCc3c(F)ccc4c3CCO4)n3cnc(c23)C1=O [compound 39, 12-(((5-fluoro-2,3-dihydrobenzofuran-4-yl)methyl)amino)-4-methyl-8-(trifluoromethyl)-4,5-dihydro-3H-2,4,9,11,12a-pentaazabenzo[4,5]cycloocta[1,2,3-cd]inden-3-one] | > 100 | 22.7 | – | – |
| O=C1NCc2nc(C(F)(F)F)ccc2-c2cnc(NCc3c(F)ccc4c3CCO4)n3cnc1c23 [compound 25, 12-(((5-fluoro-2,3-dihydrobenzofuran-4-yl)methyl)amino)-7-(trifluoromethyl)-4,5-dihydro-3H-2,4,6,11,12a-pentaazabenzo[4,5]cycloocta[1,2,3-cd]inden-3-one] | 16.5 | 0.29 | – | – |
| O=C1c2ncn3c(NCc4c(F)ccc5c4CCO5)ncc(c23)-c2ccc(C(F)(F)F)nc2CN1CC1COCCO1 (stereo not drawn) [compound 35, 4-((1,4-dioxan-2-yl)methyl)-12-(((5-fluoro-2,3-dihydrobenzofuran-4-yl)methyl)amino)-7-(trifluoromethyl)-4,5-dihydro-3H-2,4,6,11,12a-pentaazabenzo[4,5]cycloocta[1,2,3-cd]inden-3-one] | 1.23 | 0.12 | – | – |
| O=C1NCc2cc(C(F)(F)F)ncc2-c2cnc(NCc3c(F)ccc4c3CCO4)n3cnc1c23 [compound 22, 12-(((5-fluoro-2,3-dihydrobenzofuran-4-yl)methyl)amino)-7-(trifluoromethyl)-4,5-dihydro-3H-2,4,8,11,12a-pentaazabenzo[4,5]cycloocta[1,2,3-cd]inden-3-one] | 45.6 | 4.88 | – | – |
| O=C1OCc2cc(F)ccc2-c2cnc(NCc3c(F)ccc4c3CCO4)n3cnc1c23 [compound 7, 7-fluoro-12-(((5-fluoro-2,3-dihydrobenzofuran-4-yl)methyl)amino)-3H,5H-4-oxa-2,11,12a-triazabenzo[4,5]cycloocta[1,2,3-cd]inden-3-one] | 3.35 | 0.68 | – | – |
| CCN1Cc2cc(C(F)(F)F)ncc2-c2cnc(NCc3c(F)ccc4c3CCO4)n3cnc(c23)C1=O [compound 90, 4-ethyl-12-(((5-fluoro-2,3-dihydrobenzofuran-4-yl)methyl)amino)-7-(trifluoromethyl)-4,5-dihydro-3H-2,4,8,11,12a-pentaazabenzo[4,5]cycloocta[1,2,3-cd]inden-3-one] | 0.078 | 0.044 | – | – |
| O=S1(=O)Cc2ncccc2-c2cnc(NCc3c(F)ccc4c3CCO4)n3cnc1c23 [compound 94, 11-(((5-fluoro-2,3-dihydrobenzofuran-4-yl)methyl)amino)-4H-3-thia-2,5,10,11a-tetraazadibenzo[cd,f]azulene 3,3-dioxide] | 13.9 | 0.2 | – | – |
| Cc1ccc2c(n1)CS(=O)(=O)c1ncn3c(NCc4c(F)ccc5c4CCO5)ncc-2c13 [Cpd. No. 95, 11-(((5-fluoro-2,3-dihydrobenzofuran-4-yl)methyl)amino)-6-methyl-4H-3-thia-2,5,10,11a-tetraazadibenzo[cd,f]azulene 3,3-dioxide] | 0.89 | 0.023 | – | – |
| CC(C)N1CCc2cc(C(F)(F)F)ncc2-c2cnc(NCc3c(F)ccc4c3CCO4)n3cnc(c23)C1=O [E 31, 13-(((5-fluoro-2,3-dihydrobenzofuran-4-yl)methyl)amino)-4-isopropyl-8-(trifluoromethyl)-5,6-dihydro-2,4,9,12,13a-pentaazabenzo[4,5]cyclonona[1,2,3-cd]inden-3(4H)-one] | – | – | 10 to 100 | 10 to 100 |
| CN1Cc2nc(C(F)(F)F)ccc2-c2cnc(NCc3c(F)ccc4c3CCO4)n3cnc(c23)C1=O [compound 33, 12-(((5-fluoro-2,3-dihydrobenzofuran-4-yl)methyl)amino)-4-methyl-7-(trifluoromethyl)-4,5-dihydro-3H-2,4,6,11,12a-pentaazabenzo[4,5]cycloocta[1,2,3-cd]inden-3-one] | 1.11 | 0.22 | – | – |
| O=C1NCc2cc(C(F)(F)F)ccc2-c2cnc(NCc3c(F)ccc4c3CCO4)n3cnc1c23 [compound 19, 12-(((5-fluoro-2,3-dihydrobenzofuran-4-yl)methyl)amino)-7-(trifluoromethyl)-4,5-dihydro-3H-2,4,11,12a-tetraazabenzo[4,5]cycloocta[1,2,3-cd]inden-3-one] | 9.6 | 0.79 | – | – |
| O=C1c2ncn3c(NCc4c(F)ccc5c4CCO5)ncc(c23)-c2cnc(C(F)(F)F)cc2CN1CC1CCOCC1 [compound 45, 12-(((5-fluoro-2,3-dihydrobenzofuran-4-yl)methyl)amino)-4-((tetrahydro-2H-pyran-4-yl)methyl)-7-(trifluoromethyl)-4,5-dihydro-3H-2,4,8,11,12a-pentaazabenzo[4,5]cycloocta[1,2,3-cd]inden-3-one] | 6.15 | 0.61 | – | – |
| CC1CC(N2Cc3cc(C(F)(F)F)ccc3-c3cnc(NCc4c(F)ccc5c4CCO5)n4cnc(c34)C2=O)CC(C)O1 (stereo not drawn) [compound 93, 4-(2,6-dimethyltetrahydro-2H-pyran-4-yl)-12-(((5-fluoro-2,3-dihydrobenzofuran-4-yl)methyl)amino)-7-(trifluoromethyl)-4,5-dihydro-3H-2,4,11,12a-tetraazabenzo [4,5]cycloocta[1,2,3-cd]inden-3-one] | 3.71 | 0.55 | – | – |
| CC(C)(C)c1ccc2c(n1)CN(CC(F)(F)F)C(=O)c1ncn3c(NCc4c(F)ccc5c4CCO5)ncc-2c13 [E 50, 7-(tert-butyl)-12-(((5-fluoro-2,3-dihydrobenzofuran-4-yl)methyl)amino)-4-(2,2,2-trifluoroethyl)-4,5-dihydro-3H-2,4,6,11,12a-pentaazabenzo[4,5]cycloocta[1,2,3-cd]inden-3-one] | – | – | < 10 | < 10 |
| O=C1OCc2nc(C(F)(F)F)ccc2-c2cnc(NCc3c(F)ccc4c3CCO4)n3cnc1c23 [compound 14, 12-(((5-fluoro-2,3-dihydrobenzofuran-4-yl)methyl)amino)-7-(trifluoromethyl)-3H,5H-4-oxa-2,6,11,12a-tetraazabenzo[4,5]cycloocta[1,2,3-cd]inden-3-one] | 3.49 | 0.36 | – | – |
| Cc1ccc2c(n1)CN(CC(F)F)C(=O)c1ncn3c(NCc4c(F)ccc5c4CCO5)ncc-2c13 [E 6, 4-(2,2-difluoroethyl)-12-(((5-fluoro-2,3-dihydrobenzofuran-4-yl)methyl)amino)-7-methyl-4,5-dihydro-3H-2,4,6,11,12a-pentaazabenzo[4,5]cycloocta[1,2,3-cd]inden-3-one] | – | – | < 10 | < 10 |
